{"source": "patent US10464911B2", "about": "“1,3,4-oxadiazole sulfamide derivative compounds as histone deacetylase 6 inhibitor, and the pharmaceutical composition comprising the same” (Chong Kun Dang Pharmaceutical Corp., priority 2015, dated 2019)", "target": "human recombinant HDAC6 (Homo sapiens (Human), UniProt Q9UBN7)", "sequence (Q9UBN7 whole entry)": "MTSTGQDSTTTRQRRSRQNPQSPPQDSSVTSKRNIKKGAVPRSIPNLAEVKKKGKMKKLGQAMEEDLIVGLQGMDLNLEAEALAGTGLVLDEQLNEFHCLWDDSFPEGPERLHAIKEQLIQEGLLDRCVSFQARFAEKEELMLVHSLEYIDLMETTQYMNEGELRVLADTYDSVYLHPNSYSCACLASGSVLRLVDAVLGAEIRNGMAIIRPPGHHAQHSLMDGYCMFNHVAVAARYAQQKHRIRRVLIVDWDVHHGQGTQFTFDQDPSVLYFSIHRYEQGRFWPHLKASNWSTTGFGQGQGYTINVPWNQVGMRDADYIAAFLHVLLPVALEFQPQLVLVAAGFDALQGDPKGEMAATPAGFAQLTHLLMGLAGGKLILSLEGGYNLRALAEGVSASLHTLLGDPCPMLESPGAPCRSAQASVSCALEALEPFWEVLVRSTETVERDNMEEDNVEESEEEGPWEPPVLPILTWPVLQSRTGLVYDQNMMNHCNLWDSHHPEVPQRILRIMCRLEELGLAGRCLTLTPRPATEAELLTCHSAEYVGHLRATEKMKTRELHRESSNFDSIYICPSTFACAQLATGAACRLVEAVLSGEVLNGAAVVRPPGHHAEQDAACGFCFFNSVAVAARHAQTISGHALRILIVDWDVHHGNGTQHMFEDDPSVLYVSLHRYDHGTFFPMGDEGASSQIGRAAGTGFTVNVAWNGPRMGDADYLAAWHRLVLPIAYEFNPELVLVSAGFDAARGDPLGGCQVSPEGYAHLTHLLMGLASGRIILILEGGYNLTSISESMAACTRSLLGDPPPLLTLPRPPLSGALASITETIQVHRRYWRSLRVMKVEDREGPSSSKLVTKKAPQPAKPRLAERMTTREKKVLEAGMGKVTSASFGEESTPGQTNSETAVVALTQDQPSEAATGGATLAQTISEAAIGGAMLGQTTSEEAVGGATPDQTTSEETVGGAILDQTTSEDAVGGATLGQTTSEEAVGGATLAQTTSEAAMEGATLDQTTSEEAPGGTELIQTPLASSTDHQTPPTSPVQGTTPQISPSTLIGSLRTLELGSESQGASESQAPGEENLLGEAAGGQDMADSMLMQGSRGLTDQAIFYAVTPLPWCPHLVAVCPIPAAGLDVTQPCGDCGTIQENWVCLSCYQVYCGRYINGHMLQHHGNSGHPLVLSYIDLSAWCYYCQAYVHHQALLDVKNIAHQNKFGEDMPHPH", "assay": "HDAC6 enzyme activity inhibition assay (HDAC Fluorimetric Drug Discovery Kit)", "format": "biochemical", "details": "for HDAC6 selectivity (fold): HDAC6 versus HDAC1; for IC50: human recombinant HDAC6, same protocol as HDAC1 test", "description": "In order to examine the HDAC6 selectivity of the compounds of formula I of the present invention by HDAC1 and HDAC6 enzymatic activity inhibition assays, an experiment was performed using a conventional substance as a control.\nHDAC enzyme activity was measured using a HDAC Fluorimetric Drug Discovery Kit (BML-AK511, 516, Enzo Life Science). For the HDAC1 enzyme activity test, human recombinant HDAC1 (BML-SE456) was used as an enzyme source, and Fluor de Lys®-“SIRT1 (BNL-KI177) was used as a substrate. A 5-fold dilution of the compound was seeded into a 96-well plate, and then 0.3 μg of the enzyme and 10 μM of the substrate were added to each well of the plate and allowed to react at 30 for 60 minutes. Then, Fluor de Lys®-Developer II (BML-KI176) was added thereto and allowed to react for 30 minutes, after which the fluorescence value (Ex 360, Em 460) was measured using a multi-plate reader (Flexstation 3, Molecular Device). The HDAC6 enzyme was tested using human recombinant HDAC6 (382180) (Calbiochem) according to the same protocol as the HDAC1 enzyme activity test method. Based on the resulting values, each IC50 value was calculated using GraphPad Prism4.0 program.", "note": "Where a name gives a salt, the structure may show the parent alone."}
{"molecule": "CS(=O)(=O)N1CCN(S(=O)(=O)N(Cc2ccc(-c3nnc(C(F)F)o3)cc2F)c2cccnc2)CC1", "note": "[Compound 11319, N-(4-(5-(difluoromethyl)-1,3,4-oxadiazol-2-yl)-2-fluorobenzyl)-4-(methylsulfonyl)-N-(pyridin-3-yl)piperazine-1-sulfonamide]", "values": [{"measurement": "HDAC6 selectivity (fold)", "result": 1464, "unit": "fold"}, {"measurement": "IC50", "result": 68, "unit": "nM"}]}
{"molecule": "CN1CCN(S(=O)(=O)N(Cc2ccc(-c3nnc(C(F)F)o3)cc2F)c2cccnc2)CC1", "note": "[Compound 11320, N-(4-(5-(difluoromethyl)-1,3,4-oxadiazol-2-yl)-2-fluorobenzyl)-4-methyl-N-(pyridin-3-yl)piperazine-1-sulfonamide]", "values": [{"measurement": "HDAC6 selectivity (fold)", "result": 1829, "unit": "fold"}, {"measurement": "IC50", "result": 55, "unit": "nM"}]}
{"molecule": "O=S(=O)(N1CCNCC1)N(Cc1ccc(-c2nnc(C(F)(F)F)o2)cc1F)c1cccnc1", "note": "[Compound 11321, N-(2-fluoro-4-(5-(trifluoromethyl)-1,3,4-oxadiazol-2-yl)benzyl)-N-(pyridin-3-yl)piperazine-1-sulfonamide Dihydrochloride]", "values": [{"measurement": "HDAC6 selectivity (fold)", "result": 2249, "unit": "fold"}, {"measurement": "IC50", "result": 44, "unit": "nM"}]}
{"molecule": "CC(=O)N1CCN(S(=O)(=O)N(Cc2ccc(-c3nnc(C(F)(F)F)o3)cc2F)c2cccnc2)CC1", "note": "[Compound 11322, 4-acetyl-N-(2-fluoro-4-(5-(trifluoromethyl)-1,3,4-oxadiazol-2-yl)benzyl)-N-(pyridin-3-yl)piperazine-1-sulfonamide]", "values": [{"measurement": "HDAC6 selectivity (fold)", "result": 1507, "unit": "fold"}, {"measurement": "IC50", "result": 66, "unit": "nM"}]}
{"molecule": "CN1CCN(S(=O)(=O)N(Cc2ccc(-c3nnc(C(F)F)o3)cn2)c2ccccc2)CC1", "note": "[Compound 11363, N-((5-(5-(difluoromethyl)-1,3,4-oxadiazol-2-yl)pyridin-2-yl)methyl)-4-methyl-N-phenylpiperazine-1-sulfonamide]", "values": [{"measurement": "HDAC6 selectivity (fold)", "result": 6863, "unit": "fold"}, {"measurement": "IC50", "result": 15, "unit": "nM"}]}
{"molecule": "O=S(=O)(N1CCN(C2COC2)CC1)N(Cc1ccc(-c2nnc(C(F)F)o2)cc1F)c1ccccc1", "note": "[Compound 11379, N-(4-(5-(difluoromethyl)-1,3,4-oxadiazol-2-yl)-2-fluorobenzyl)-4-(oxetan-3-yl)-N-phenylpiperazine-1-sulfonamide]", "values": [{"measurement": "HDAC6 selectivity (fold)", "result": 3846, "unit": "fold"}, {"measurement": "IC50", "result": 26, "unit": "nM"}]}
{"molecule": "O=S1(=O)CCN(S(=O)(=O)N(Cc2ccc(-c3nnc(C(F)F)o3)cn2)c2ccccc2)CC1", "note": "[Compound 11440, N-((5-(5-(difluoromethyl)-1,3,4-oxadiazol-2-yl)pyridin-2-yl)methyl)-N-phenylthiomorpholine-4-sulfonamide 1,1-dioxide]", "values": [{"measurement": "HDAC6 selectivity (fold)", "result": 5000, "unit": "fold"}, {"measurement": "IC50", "result": 20, "unit": "nM"}]}
{"molecule": "O=S(=O)(N1CCN(C2COC2)CC1)N(Cc1ccc(-c2nnc(C(F)F)o2)cn1)c1ccccc1", "note": "[Compound 11574, N-((5-(5-(difluoromethyl)-1,3,4-oxadiazol-2-yl)pyridin-2-yl)methyl)-4-(oxetan-3-yl)-N-phenylpiperazine-1-sulfonamide]", "values": [{"measurement": "HDAC6 selectivity (fold)", "result": 6250, "unit": "fold"}, {"measurement": "IC50", "result": 16, "unit": "nM"}]}
{"molecule": "O=S(=O)(N1CCN(C2COC2)CC1)N(Cc1ccc(-c2nnc(C(F)F)o2)cc1)c1ccccc1", "note": "[Compound 11575, N-(4-(5-(difluoromethyl)-1,3,4-oxadiazol-2-yl)benzyl)-4-(oxetan-3-yl)-N-phenylpiperazine-1-sulfonamide]", "values": [{"measurement": "HDAC6 selectivity (fold)", "result": 2083, "unit": "fold"}, {"measurement": "IC50", "result": 48, "unit": "nM"}]}
{"molecule": "CCN1[C@H](C)CN(S(=O)(=O)N(Cc2ccc(-c3nnc(C(F)F)o3)cc2)c2ccccc2)C[C@@H]1C", "note": "[Compound 11640, (3S,5R)—N-(4-(5-(difluoromethyl)-1,3,4-oxadiazol-2-yl)benzyl)-4-ethyl-3,5-dimethyl-N-phenylpiperazine-1-sulfonamide]", "values": [{"measurement": "HDAC6 selectivity (fold)", "result": 946, "unit": "fold"}, {"measurement": "IC50", "result": 105, "unit": "nM"}]}
{"molecule": "CC(=O)N1[C@H](C)CN(S(=O)(=O)N(Cc2ccc(-c3nnc(C(F)F)o3)cc2)c2ccccc2)C[C@@H]1C", "note": "[Compound 11641, (3S,5R)-4-acetyl-N-(4-(5-(difluoromethyl)-1,3,4-oxadiazol-2-yl)benzyl)-3,5-dimethyl-N-phenylpiperazine-1-sulfonamide]", "values": [{"measurement": "HDAC6 selectivity (fold)", "result": 2989, "unit": "fold"}, {"measurement": "IC50", "result": 33, "unit": "nM"}]}
{"molecule": "CCCN1[C@H](C)CN(S(=O)(=O)N(Cc2ccc(-c3nnc(C(F)F)o3)cc2)c2ccccc2)C[C@@H]1C", "note": "[Compound 11642, (3S,5R)—N-(4-(5-(difluoromethyl)-1,3,4-oxadiazol-2-yl)benzyl)-3,5-dimethyl-N-phenyl-4-propylpiperazine-1-sulfonamide]", "values": [{"measurement": "HDAC6 selectivity (fold)", "result": 287, "unit": "fold"}, {"measurement": "IC50", "result": 348, "unit": "nM"}]}
{"molecule": "C[C@@H]1CN(S(=O)(=O)N(Cc2ccc(-c3nnc(C(F)F)o3)cc2)c2ccccc2)C[C@H](C)N1C", "note": "[Compound 11643, (3S,5R)—N-(4-(5-(difluoromethyl)-1,3,4-oxadiazol-2-yl)benzyl)-3,4,5-trimethyl-N-phenylpiperazine-1-sulfonamide]", "values": [{"measurement": "HDAC6 selectivity (fold)", "result": 1443, "unit": "fold"}, {"measurement": "IC50", "result": 69, "unit": "nM"}]}
{"molecule": "C[C@@H]1CN(S(=O)(=O)N(Cc2ccc(-c3nnc(C(F)F)o3)cc2)c2ccccc2)C[C@H](C)N1C(=O)C(F)F", "note": "[Compound 11644, (3S,5R)-4-(2,2-difluoroacetyl)-N-(4-(5-(difluoromethyl)-1,3,4-oxadiazol-2-yl)benzyl)-3,5-dimethyl-N-phenylpiperazine-1-sulfonamide]", "values": [{"measurement": "HDAC6 selectivity (fold)", "result": 770, "unit": "fold"}, {"measurement": "IC50", "result": 130, "unit": "nM"}]}
{"molecule": "CC(C)N1CCN(S(=O)(=O)N(Cc2ccc(-c3nnc(C(F)F)o3)cc2)c2ccc(F)c(Cl)c2)CC1", "note": "[Compound 11651, N-(3-chloro-4-fluorophenyl)-N-(4-(5-(difluoromethyl)-1,3,4-oxadiazol-2-yl)benzyl)-4-iso propylpiperazine-1-sulfonamide]", "values": [{"measurement": "HDAC6 selectivity (fold)", "result": 207, "unit": "fold"}, {"measurement": "IC50", "result": 481, "unit": "nM"}]}
{"molecule": "O=S(=O)(N1CCN(C2CCC2)CC1)N(Cc1ccc(-c2nnc(C(F)F)o2)cc1)c1ccc(F)c(Cl)c1", "note": "[Compound 11652, N-(3-chloro-4-fluorophenyl)-4-cyclobutyl-N-(4-(5-(difluoromethyl)-1,3,4-oxadiazol-2-yl)benzyl)piperazine-1-sulfonamide]", "values": [{"measurement": "HDAC6 selectivity (fold)", "result": 422, "unit": "fold"}, {"measurement": "IC50", "result": 237, "unit": "nM"}]}
{"molecule": "CC(C)N1CCN(S(=O)(=O)N(Cc2ccc(-c3nnc(C(F)F)o3)cn2)c2ccc(F)c(Cl)c2)CC1", "note": "[Compound 11670, N-(3-chloro-4-fluorophenyl)-N-((5-(5-(difluoromethyl)-1,3,4-oxadiazol-2-yl)pyridin-2-yl)methyl)-4-isopropylpiperazine-1-sulfonamide]", "values": [{"measurement": "HDAC6 selectivity (fold)", "result": 4761, "unit": "fold"}, {"measurement": "IC50", "result": 21, "unit": "nM"}]}
{"molecule": "O=S(=O)(N1CCN(C2CCC2)CC1)N(Cc1ccc(-c2nnc(C(F)F)o2)cn1)c1ccc(F)c(Cl)c1", "note": "[Compound 11671, N-(3-chloro-4-fluorophenyl)-4-cyclobutyl-N-((5-(5-(difluoromethyl)-1,3,4-oxadiazol-2-yl)pyridin-2-yl)methyl)piperazine-1-sulfonamide]", "values": [{"measurement": "HDAC6 selectivity (fold)", "result": 3703, "unit": "fold"}, {"measurement": "IC50", "result": 27, "unit": "nM"}]}
{"molecule": "O=S(=O)(N1CCN(C2COC2)CC1)N(Cc1ccc(-c2nnc(C(F)F)o2)cn1)c1ccc(F)c(Cl)c1", "note": "[Compound 11672, N-(3-chloro-4-fluorophenyl)-N-((5-(5-(difluoromethyl)-1,3,4-oxadiazol-2-yl)pyridin-2-yl)methyl)-4-(oxetan-3-yl)piperazine-1-sulfonamide]", "values": [{"measurement": "HDAC6 selectivity (fold)", "result": 7142, "unit": "fold"}, {"measurement": "IC50", "result": 14, "unit": "nM"}]}
{"molecule": "CC(C)N1CCN(S(=O)(=O)N(Cc2ccc(-c3nnc(C(F)F)o3)cc2)c2ccccc2)CC1", "note": "[Compound 11673, N-(4-(5-(difluoromethyl)-1,3,4-oxadiazol-2-yl)benzyl)-4-isopropyl-N-phenylpiperazine-1-sulfonamide]", "values": [{"measurement": "HDAC6 selectivity (fold)", "result": 1351, "unit": "fold"}, {"measurement": "IC50", "result": 74, "unit": "nM"}]}
{"molecule": "O=S(=O)(N1CCN(C2CCC2)CC1)N(Cc1ccc(-c2nnc(C(F)F)o2)cc1)c1ccccc1", "note": "[Compound 11674, 4-cyclobutyl-N-(4-(5-(difluoromethyl)-1,3,4-oxadiazol-2-yl)benzyl)-N-phenylpiperazine-1-sulfonamide]", "values": [{"measurement": "HDAC6 selectivity (fold)", "result": 751, "unit": "fold"}, {"measurement": "IC50", "result": 133, "unit": "nM"}]}
{"molecule": "CN(CCN1CCN(C2COC2)CC1)S(=O)(=O)N(Cc1ccc(-c2nnc(C(F)F)o2)cc1)c1ccccc1", "note": "[Compound 11704, 2-((4-(((N-methyl-N-(2-(4-(oxetan-3-yl)piperazin-1-yl)ethyl)sulfamoyl)(phenyl)amino)methyl))phenyl)-5-(difluoromethyl)-1,3,4-oxadiazole]", "values": [{"measurement": "HDAC6 selectivity (fold)", "result": 429, "unit": "fold"}, {"measurement": "IC50", "result": 233, "unit": "nM"}]}
{"molecule": "CC(=O)N1CCN(CCN(C)S(=O)(=O)N(Cc2ccc(-c3nnc(C(F)F)o3)cc2)c2ccccc2)CC1", "note": "[Compound 11713, 2-((4-(((N-methyl-N-(2-(4-acetylpiperazin-1-yl)ethyl)sulfamoyl)(phenyl)amino)methyl))phenyl)-5-(difluoromethyl)-1,3,4-oxadiazole]", "values": [{"measurement": "HDAC6 selectivity (fold)", "result": 142, "unit": "fold"}, {"measurement": "IC50", "result": 705, "unit": "nM"}]}
{"molecule": "CN(CCN1CCN(S(C)(=O)=O)CC1)S(=O)(=O)N(Cc1ccc(-c2nnc(C(F)F)o2)cc1)c1ccccc1", "note": "[Compound 11714, 2-((4-(((N-methyl-N-(2-(4-(methylsulfonyl)piperazin-1-yl)ethyl)sulfamoyl)(phenyl)amino)methyl))phenyl)-5-(difluoromethyl)-1,3,4-oxadiazole]", "values": [{"measurement": "HDAC6 selectivity (fold)", "result": 616, "unit": "fold"}, {"measurement": "IC50", "result": 162, "unit": "nM"}]}
{"molecule": "Cl.O=S(=O)(N1CCC2(CC1)CNC2)N(Cc1ccc(-c2nnc(C(F)F)o2)cc1)c1ccccc1", "note": "[Compound 11787, N-(4-(5-(difluoromethyl)-1,3,4-oxadiazol-2-yl)benzyl)-N-phenyl-2,7-diazaspiro[3.5]nonane-7-sulfonamide Hydrochloride]", "values": [{"measurement": "HDAC6 selectivity (fold)", "result": 1041, "unit": "fold"}, {"measurement": "IC50", "result": 96, "unit": "nM"}]}
